Measurements as given in patent publication US7098313B2, “DNA sequences coding for a polyol carrier and their use, in particular for the preparation of transgenic plants” (Centre National de la Recherche Scientifique, priority 2000, dated 2006).

Columns and labels:
AgMaT1 = experiment: Transport of radiolabelled mannitol in yeast cells expressing AgMaT1, with competitors; type: cell-based, Apium graveolens L.; details: MaDH4 S. cerevisiae expressing AgMaT1; 500 μM [3H]-mannitol, pH 4.5; competitor added 30 seconds before
Method: The cells were cultured until the start of the logarithmic phase (corresponding to an absorbance of […]), washed in distilled water and resuspended at 1% (weight/volume) in SC medium buffered to pH 4.5 with 25 mM MES. A 100 μl aliquot fraction of the cell suspension was incubated for 60, 120, 180 and 300 seconds in 100 μl of a solution containing of 500 μM [^3H]-mannitol. The reaction was stopped by adding 8 ml of water at 4° C. and by filtration through glass fibre filters (Sartorius). The radioactivity incorporated in the yeast cells was determined by counting using liquid scintillation (Packard). For the experiments with inhibitors or competitors, the product was added 30 seconds before the radioactive mannitol.
For a subsequent characterization of the function of the AgMaT1 protein, it was necessary to express the carrier in a functional manner in a heterologous system such as yeast cells. The cDNA of AgMaT1 was sub-cloned in the PstI/XhoI sites of the YEP 112A1XE shuttle vector which has a promoter/terminator box of the gene of alcohol dehydrogenase ADH1 of S. cerevisiae (Riesmeier et al., 1992). The competent MaDH4 cells were transformed with this construction and YEP 112A1XE was used as control.
All of the constructions were firstly tested for their ability to grow on mannitol as the only carbon source. […] The cells expressing AgMaT1 could grow very well on this polyol. In order to directly test the ability of the transformed cells to transport mannitol, the yeast cells were incubated in a medium containing [^3H]-mannitol for a few seconds to several minutes, the cells were washed and the radioactivity absorbed was measured by […] scintillation counting. […] However, the MaDH4 yeast strains, expressing AgMaT1, transport the [^3H]-mannitol at high speeds when they grow on a medium containing mannitol. The same result is obtained with the cells of transformed yeast growing on glycerol (data not indicated).

AgMaT1 expression = details: saline stress for 4 weeks, daily watering with 300 mM of NaCl; RT-PCR
Method: The total RNA of celery phloem was isolated according to the method of Kay et al. (1987). The first strand of cDNA was reverse transcribed from the total RNA with the oligo dT primer by using the reverse transcriptase SuperScript™ II (Stratagene). […] The PCR conditions were as follows: 2 minutes at 95° C. then 30 cycles comprising denaturation for 30 seconds at 95° C., fixation for one minute at 47° C. and extension for 45 seconds at 72° C. The PCR products were analyzed by agarose gel electrophoresis and the intensity of the signal obtained was quantified using Photoshop 5.0 software (Adobe systems Inc.). The extension factor elF4A(10) (Mandel et al., 1995) was used as control gene, the expression of which is invariable.
The expression of AgMaT1 was monitored in plants having been subjected to saline stress for 4 weeks (daily watering with 300 mM of NaCl, Noiraud et al., 2000). The phloem of these plants as well as of the corresponding control plants (watered with water not containing NaCl) was removed in order to extract the RNA which was used to carry out RT-PCR reactions.

Row | SMILES | inhibition of the absorption of mannitol (AgMaT1) | expression of AgMaT1 in the phloem (control plants taken as base 100) (AgMaT1 expression) [%]
1 | OC[C@@H](O)[C@H](O)[C@H](O)[C@@H](O)CO [dulcitol] | inhibiting by half | –
2 | O[C@H]1[C@H](O)[C@@H](O)[C@H](O)[C@@H](O)[C@H]1O [myo-inositol] | inhibiting by half | –
3 | OC[C@@H](O)[C@@H](O)[C@H](O)[C@@H](O)CO [sorbitol] | inhibiting by half | –
4 | OC[C@@H](O)[C@H](O)[C@@H](O)CO [xylitol] | inhibiting by half | –
5 | [Cl-].[Na+] [NaCl] | – | 500
